One compound from US5506213A, “Adminstration of 2'-halo-2'-deoxy adenosine to treat inflammatory bowel disease” (priority 1994, dated 1996) can be followed below.

Series [1] concerns normal human monocytes. The experiment in a line: In vitro cytotoxicity toward human monocytes (MTT reduction assay). Format: cell-based. As to conditions: for IC50: Homo sapiens, Monocyte. The text has this: The percentage of viable cells remaining after treatment (ordinate) is plotted against the concentration of CdA utilized (abscissa), on a linear scale.
Peripheral blood monocytes and lymphocytes were isolated by well known methods from normal subjects. […] The human fibroblast cell line GMO1380 was obtained originally from the NIGMS Human Genetic Mutant Cell Repository, Camden, N.J., and cultured under the same conditions as above. That cell line was from a normal fetal lung.
Meth., 65: 55-63. After culturing for up to five days, 3-(4,5-dimethylthiazol-2-yl)-2,5-diphenyl tetrazolium bromide (MTT) at 0.2 mg (40 μl) was admixed with each well and the incubation was continued for another 4 hours. The plates were then centrifuged at 1000×g for 10 minutes, and supernatants were carefully aspirated with a finely drawn pipette.
Acidified isopropanol (100 μl; using 0.04N HCl) was added to each well.
Viable cell numbers were determined using a Dynatech microplate spectrophotometer, measuring absorbance at a wavelength of 570 nanometers (nm), using a reference wavelength of 630 nm.

The subject of series [2] is human monocytes. The experiment in a line: Cellular NAD, ATP and viability in human monocytes exposed to CdA. It counts as cell-based. The settings on record: CdA at 1 nM. Here is the method: FIG. 5 is a graph showing the biochemical effects induced in human monocytes in vitro by exposure to […] CdA over a period of 16 hours. The effects of CdA exposure upon monocyte viability (open squares), NAD content (closed squares), RNA synthesis (open circles) and DNA strand breaks (ds-DNA; closed circles) are illustrated.
Cellular NAD content was measured in human monocytes following incubation in culture with CdA (1 nM). An alcohol dehydrogenase cycling assay as described in Jacobson and Jacobson (1976) Arch. Biochem. Biophys. 175:627-634 was used to measure NAD.
Monocytes, cultured and contacted as before described, were detached from the culture wells and were treated with perchloric acid (0.5M) for 10 minutes at 4 degrees C. The mixture was clarified and neutralized with KOH containing potassium phosphate buffer (0.33M) at pH 7.5.Monocyte ATP was quantitated in perchloric acid extracts by anion exchange HPLC, using a Whatman SAX column with an isocratic mobile phase consisting of KH2 PO4 (0.25M), KCl (0.5M) and acetonitrile (2 percent) at pH 3.6 following the procedures of Carson et al. (1980) Proc. Nat'l. Acad, Sci. USA, 77:6865-6869.
NAD^+ consumption for poly(ADP-ribose) synthesis is a known consequence of severe DNA damage in eukaryotic cells. […]

For series [3], the system named is neopterin. The experiment in a line: Plasma neopterin levels in a rheumatoid arthritis patient treated with CdA. It counts as in vivo, human. Here is the method:
Plasma neopterin levels were measured in a patient with rheumatoid arthritis. Neopterin is released from monocytes and macrophages activated in an immune response. Huber et al., J. Exp. Med., 160:310-316 (1984). Likewise, high levels of neopterin are associated with clinical activity in patients with rheumatoid arthritis. Clinical activity was rated by the following criteria: duration of morning stiffness, range of motion, subjective pain score, measurement of grip strength, synovial thickening, and number of inflamed joints. Reibnegger et al., Arthritis Rheum., 29:1063-1070 (1986). The levels of neopterin in patients with rheumatoid arthritis are proportional to both clinical activity and the levels of activated monocytes and macrophages in these patients.
In this study, a patient with rheumatoid arthritis received CdA by a weekly, four hour intravenous infusion at a dosage of 0.125 to 0.15 mg/kg body weight for an approximately three month course of therapy. Plasma neopterin levels were measured throughout this treatment regime.

Series [4] deals with Peripheral blood lymphocytes. As to the kind of experiment: Direct comparative cytotoxicity assay (Table II), peripheral blood lymphocytes. It counts as cell-based, human. The settings on record: Homo sapiens, Lymphocyte, 120 h, read-out: ID50: concentration that produced 50 percent reduction in all numbers after five days. The source says: The two compounds, CdA and CAFdA, were also compared for in vitro activity against another group of human cell lines in a direct comparative assay.
^1 Concentration that produced 50 percent reduction in all numbers

The test system of series [5] is circulating peripheral blood monocytes, lymphocytes, neutrophils and platelets. The experiment in a line: Cytotoxicity of CdA in vivo: blood cell counts in cutaneous T-cell lymphoma patients. More on the design: species or system human. As for the experimental part: FIG. 1 is a graph showing the results of a study of the cytotoxicity of 2-chlorodeoxyadenosine (CdA) toward three cell types in the peripheral blood of eight cutaneous T-cell lymphoma patients. A continuous intravenous infusion of CdA (0.1 mg/ml in isotonic saline) was administered to each patients at a dosage of 0.1 mg/kg per day, with the patients receiving therapy for seven days. Blood samples were removed daily and cell counts performed, with averaged values being shown. Graph symbols are as follows: open squares indicate the monocytes; plus signs indicate neutrophils (X10^-1); and closed diamonds indicate lymphocytes. The cell concentration (ordinate) is plotted for the day of treatment (abscissa) on which it is measured.
The effect of 2-chlorodeoxyadenosine (CdA) administration upon the level of circulating peripheral blood monocytes, lymphocytes, neutrophils and platelets was determined as follows.
Eight cutaneous T-cell lymphoma patients were administered continuous intravenous infusion of a composition containing 2-chlorodeoxyadenosine at a dosage of 0.1 mg/kg of body weight per day in isotonic saline. Blood samples were obtained daily and the number of viable cells present were enumerated daily for seven days after treatment.

The structures appear in SMILES notation. Where two headings read alike, the source gives them in different places.

For the compound `Nc1nc(Cl)nc2c1ncn2[C@H]1C[C@H](O)[C@@H](CO)O1` [CdA, 2-chloro-9,1'-beta-D-2'-deoxyribosyladenine], the IC50 in series [1] (120 h, five days exposure (FIG. 2), read-out: CdA concentration at which 50 percent of the cultured monocytes were killed) stood at 20 nM; in series [1] (another study, freshly isolated monocytes, read-out: CdA concentration at which 50 percent of freshly isolated monocytes were killed), 22 nM; in series [4] it was 15 nM. Further, the “monocyte sensitivity to CdA in the presence of deoxycytidine” value in series [1] (deoxycytidine 100 μM) is recorded as “substantially reduced”. The “exposure time at which decreases in ATP and cell viability were first evident” value in series [2] came to 16 h. Also, the “monocyte NAD content” value in series [2] (first four hours of exposure) is > 95% of control NAD. Also, the plasma neopterin result is on record as “about 18 nM” in series [3] (by about day 84 of therapy); “about 30 nM” in series [3] (days 14 through 70 after the first administration); “about 60 nM” in series [3] (initial value, weekly four hour i.v. infusion 0.125 to 0.15 mg/kg); “about 25 nM” in series [3] (within the first seven days of therapy). Also, the “time for monocyte numbers to return to approximately pre-administration values” in series [5] (after cessation of the CdA administration) is recorded as “within about two weeks”. Besides, the “decrease in number of circulating lymphocytes” value in series [5] (by the end of period of infusion, 0.1 mg/kg per day) is recorded as 30%. Further, the “patients whose monocytes disappeared completely from the circulation” value in series [5] (by the seventh treatment day, 0.1 mg/kg per day) is listed as “four of the eight”. Moreover, in series [5] (day 7, 0.1 mg/kg per day continuous intravenous infusion, eight patients), the “mean level of monocyte decrease” value is listed as 80%. For the same compound, in series [5] (seven days, 0.1 mg/kg per day), the “number of circulating neutrophils” value is “no significant decrease”. In series [5] (seven days, 0.1 mg/kg per day), the “platelet and hemoglobin levels” value is “constant”.
